Experimental findings from patent US20240317774A1, “Pharmaceutical Compound” (GLAXOSMITHKLINE INTELLECTUAL PROPERTY DEVELOPMENT LIMITED, priority 2021, published 2024) are described below.

One assay deals with P. falciparum 3D7A. As to the kind of experiment: Panel of P. falciparum strains: 3D7A. Format: cell-based. As to conditions: Plasmodium falciparum, read-out: IC50 (mean μM ± SD) 3D7A.
Another assay deals with P. falciparum Dd2. Put plainly: Panel of P. falciparum strains: Dd2. It counts as cell-based. The following applies: strain Dd2.
The next assay has as its system P. falciparum FCR3. Put plainly: Panel of P. falciparum strains: FCR3. As to conditions: strain FCR3. Format: cell-based.
Another assay concerns P. falciparum Tm90C2A. As to the kind of experiment: Panel of P. falciparum strains: Tm90C2A. Format: cell-based. As to conditions: strain Tm90C2A.
Another assay relates to P. falciparum Tm90C2B. It counts as cell-based. The following applies: strain Tm90C2B.
Assay [1] deals with P. falciparum infected erythrocytes. Put plainly: Blood stages activity, [3H]hypoxanthine incorporation method. As to conditions: Plasmodium falciparum, Erythrocyte; whole cell activity; read-out: WC IC50. It counts as cell-based. On the procedure:
The sensitivity of P. falciparum infected erythrocytes to the compound was determined using the [3H]hypoxanthine incorporation method with an inoculum of 0.5% parasitemia (ring stage) and 2% hematocrit. The parasites were grown in RPMI 1640, 25 mM HEPES and supplemented with 5% Albumax. Plates are incubated at 37° C., 5% CO2, 5% O2, 90% N2. After 24 h of incubation, [3H]hypoxanthine is added and plates are incubated for another 24 h. After that period, plates are harvested on a glass fiber filter using a TOMTEC Cell harvester 96. Filters are dried and melt on scintillator sheets and the bound radioactivity is quantified by use of a Wallac Microbeta Trilux (Model 1450 LS-Perkin Elmer). IC50s are determined using Grafit 7 program (Grafit program; Erithacus Software, Horley, Surrey, United Kingdom).

Assay [2] addresses T1, cytochrome bc1 of mitochondria isolated from human cells (HEK293) (Homo sapiens, UniProt P00156).
T1 construct: endogenous in cells; host or cells: HEK293 (isolated mitochondria)
As to the kind of experiment: Enzymatic bc1 inhibition, cytochrome c reductase activity, human mitochondria. As to conditions: for IC50: activity in the human target, read-out: Hbc1 IC50; for Tox window selectivity index: human bc1 vs P. falciparum bc1. Format: biochemical. On the procedure:
(§1) For cytochrome bc1 experiments, mitochondria were isolated as follows: parasitized erythrocytes were harvested by centrifugation and lysed with 0.05% (w/v) saponin in RPMI. Then parasites were washed three times with H-medium (0.07 M sucrose, 0.21 M mannitol, 1 mM EGTA, 5 mM MgCl2, 5 mM KH2PO4, and 4 mM HEPES, pH 7.4) and resuspended in the same medium in the presence of 1 mM PMSF and protease inhibitor cocktail (Roche Complete). Parasites were disrupted by N2 cavitation (4639 Cell disruption Bomb, Parr Instrument, Moline, IL, USA) at 1600 psi for 25 min at 4° C. Unbroken cells and cell debris were removed by centrifugation at 1,200×g for 10 min at 4° C. The mitochondrial fraction was pelleted at 10,000×g for 20 min at 4° C. The mitochondrial pellet was gently resuspended in 0.8 M sucrose, 1 mM EDTA, 10 mM Tris-HCl PH 7.4, and 0.1% BSA prior to separation on a 1-2 M sucrose gradient. The sample was centrifuged on a gradient at 80,000×g for 2 hr at 4° C. The mitochondria were then recovered and washed with 1 mM EDTA, 10 mM Tris-HCL pH 7.4 to remove sucrose, and resuspended in H-medium with protease inhibitor cocktail and 1 mM PMSF. Samples were stored at −80° C. until use. In the case of human mitochondria, HEK293 human cell line was used as starting material. Cells were pelleted at 400×g 10 min and disrupted by N2 cavitation. Mitochondria then were isolated using the method described above. Cytochrome c reductase activity was assayed by a modification of the method of Fry and Pudney, Biochem. Pharmacol., 43 (1992), pp. 1545-1553. Mitochondria (40 μg/ml) were diluted in reaction buffer (250 mM sucrose, 50 mM KH2PO4, 0.2 mM EDTA, 1 mM NaN3, and 2.5 mM KCN) containing 50 μM cytochrome c. Reactions were started by addition of 25 μM decylubiquinol and monitored by reduction of cytochrome c at 550 nm. To assure the linearity of the enzymatic reaction only data from the first 60 s were collected. Decylubiquinol substrate was prepared by reducing decylubiquinone (Sigma-Aldrich, St. Louis, MO, USA) in ethanol with sodium borohydride. Decylubiquinol was aliquoted and stored in acidified ethanol at −80° C. Inhibition of bc1 activity on mitochondria isolated from human parasites (P. falciparum 3D7A), rodent parasites (P. berghei ANKA) and human cells (HEK293).

In assay [3] the target is T2, cytochrome bc1 of mitochondria isolated from human parasites (P. falciparum 3D7A) (Plasmodium falciparum, UniProt Q02768).
T2 construct: endogenous in cells; host or cells: P. falciparum 3D7A parasites from parasitized erythrocytes (isolated mitochondria)
T2 sequence (Q02768 whole entry): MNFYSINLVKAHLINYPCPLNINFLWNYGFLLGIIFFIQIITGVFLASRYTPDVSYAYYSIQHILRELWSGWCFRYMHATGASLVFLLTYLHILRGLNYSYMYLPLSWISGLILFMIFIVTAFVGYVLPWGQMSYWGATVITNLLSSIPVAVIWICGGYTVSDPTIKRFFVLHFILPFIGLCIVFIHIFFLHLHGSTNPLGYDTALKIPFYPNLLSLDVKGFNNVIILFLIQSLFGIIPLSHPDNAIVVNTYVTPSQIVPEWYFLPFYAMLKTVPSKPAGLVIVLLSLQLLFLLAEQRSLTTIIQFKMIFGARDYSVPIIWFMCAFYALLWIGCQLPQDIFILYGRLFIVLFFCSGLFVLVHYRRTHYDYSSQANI
As to the kind of experiment: Enzymatic bc1 inhibition, cytochrome c reductase activity, P. falciparum mitochondria. Format: biochemical. On the procedure: as §1

[4] abbreviates: activity in the P. falciparum target, read-out: p.fbc1 IC50.

Molecules are shown by their SMILES. Where two headings read alike, the source gives them in different places.

As usually defined, the IC50 is the concentration needed to halve the response being measured. Take `C[C@H]1[C@H](OC(=O)CCC(=O)O)O[C@@H]2O[C@@]3(C)CC[C@H]4[C@H](C)CC[C@@H]1[C@@]24OO3` [Artesunate]: in the assay on P. falciparum 3D7A, the half-maximal inhibitory concentration (IC50) was 0.014 ± 0.0003 µM. Further, the “Pf IC50 Ratio vs Pf IC50 3D7, Dd2” value with P. falciparum Dd2 worked out at 1. In addition, the “Pf IC50 Ratio vs Pf IC50 3D7, FCR3” value in the assay with P. falciparum FCR3 is 1. Moreover, the “Pf IC50 Ratio vs Pf IC50 3D7, Tm90C2A” value in the assay with P. falciparum Tm90C2A is reported as 1. Moreover, in the assay with P. falciparum Tm90C2B, the “Pf IC50 Ratio vs Pf IC50 3D7, Tm90C2B” value is listed as 1.
`O=C1C(O)=C([C@H]2CC[C@H](c3ccc(Cl)cc3)CC2)C(=O)c2ccccc21` [Atovaquone]: in the assay with P. falciparum 3D7A (strain 3D7A), the IC50 is 0.001 ± 0.001 µM. In addition, the “Pf IC50 Ratio vs Pf IC50 3D7, Dd2” value with P. falciparum Dd2 is 2. The “Pf IC50 Ratio vs Pf IC50 3D7, FCR3” value in the assay with P. falciparum FCR3 is above 100. The “Pf IC50 Ratio vs Pf IC50 3D7, Tm90C2A” value in the assay on P. falciparum Tm90C2A was found to be 1. Besides, the “Pf IC50 Ratio vs Pf IC50 3D7, Tm90C2B” value in the assay with P. falciparum Tm90C2B is reported as above 250.
As for `CCN(CC)CCCC(C)Nc1ccnc2cc(Cl)ccc12` (centres unmarked) [Chloroquine], the IC50 in the assay on P. falciparum 3D7A was 0.029 ± 0.006 µM. In the assay with P. falciparum Dd2, the “Pf IC50 Ratio vs Pf IC50 3D7, Dd2” value is listed as above 7. Moreover, the “Pf IC50 Ratio vs Pf IC50 3D7, FCR3” value with P. falciparum FCR3 is on record as above 7. In addition, in the assay on P. falciparum Tm90C2A, the “Pf IC50 Ratio vs Pf IC50 3D7, Tm90C2A” value is listed as above 7. For the same compound, the “Pf IC50 Ratio vs Pf IC50 3D7, Tm90C2B” value in the assay with P. falciparum Tm90C2B was above 14.
Turning to `C[C@H]1[C@@H](O)O[C@@H]2O[C@@]3(C)CC[C@H]4[C@H](C)CC[C@@H]1[C@@]24OO3` [Dihydroartemisinine], the half-inhibitory concentration (IC50) in the assay on P. falciparum 3D7A (strain 3D7A) is 0.004 ± 0.0001 µM. The “Pf IC50 Ratio vs Pf IC50 3D7, Dd2” value in the assay on P. falciparum Dd2 is on record as 1. In addition, in the assay on P. falciparum FCR3, the “Pf IC50 Ratio vs Pf IC50 3D7, FCR3” value is on record as 1. In addition, the “Pf IC50 Ratio vs Pf IC50 3D7, Tm90C2A” value in the assay on P. falciparum Tm90C2A is 1. In the assay on P. falciparum Tm90C2B, the “Pf IC50 Ratio vs Pf IC50 3D7, Tm90C2B” value is reported as 1.
Regarding `Cc1[nH]c2sc3cc(-c4ccc(C(F)(F)F)cc4F)ccc3c2c(=O)c1Cl` [Example 1, 3-chloro-7-(2-fluoro-4-(trifluoromethyl)phenyl)-2-methylbenzo[4,5] thieno[2,3-b]pyridin-4(1H)-one], the IC50 is 0.00146 µM in assay [1], 3.3 µM in assay [2], 0.0046 µM in assay [3] and 0.012 ± 0.002 µM with P. falciparum 3D7A (strain 3D7A). Further, in assay [2], the “Tox window selectivity index” value is 300-600. For the same compound, the “Pf IC50 Ratio vs Pf IC50 3D7, Dd2” value with P. falciparum Dd2 is reported as 1. For the same compound, in the assay on P. falciparum FCR3, the “Pf IC50 Ratio vs Pf IC50 3D7, FCR3” value came out at 1. For the same compound, the “Pf IC50 Ratio vs Pf IC50 3D7, Tm90C2A” value with P. falciparum Tm90C2A is reported as 1. Moreover, in the assay with P. falciparum Tm90C2B, the “Pf IC50 Ratio vs Pf IC50 3D7, Tm90C2B” value came to 7.
As to `Cc1[nH]c2sc3cc(-c4cc(C(F)(F)F)ccc4F)ccc3c2c(=O)c1Cl` [Example 3, 3-chloro-7-(2-fluoro-5-(trifluoromethyl)phenyl)-2-methylbenzo[4,5]thieno[2,3-b]pyridin-4(1H)-one], the IC50 in assay [1] came to 0.0316 µM; in assay [2], 1.52 µM; in assay [3] (setting [4]), 0.0018 µM. Further, the “Tox window selectivity index” value in assay [2] worked out at 500.
In the same order, the values of `Cc1[nH]c2sc3cc(-c4ccccc4OC(F)(F)F)ccc3c2c(=O)c1Cl` [Example 4, 3-chloro-2-methyl-7-(2-(trifluoromethoxy)phenyl)benzo[4,5]thieno[2,3-b]pyridin-4(1H)-one] are 0.000732 µM, 1.56 µM, 0.00096 µM and 1625.
`Cc1[nH]c2sc3cc(-c4ccc(C(F)(F)F)cc4C(F)(F)F)ccc3c2c(=O)c1Cl` [Example 5, 7-(2,4-bis(trifluoromethyl)phenyl)-3-chloro-2-methylbenzo[4,5]thieno[2,3-b]pyridin-4(1H)-one]: the half-maximal inhibitory concentration (IC50) amounted to 0.000433 µM in assay [1], 2.42 µM in assay [2] and 0.0011 µM in assay [3]. Besides, the “Tox window selectivity index” value in assay [2] worked out at 2200.
Turning to `Cc1[nH]c2sc3cc(-c4ccc(CO)cc4)ccc3c2c(=O)c1Cl` [Example 6, 3-chloro-7-(4-(hydroxymethyl)phenyl)-2-methylbenzo[4,5]thieno[2,3-b]pyridin-4(1H)-one], the half-inhibitory concentration (IC50) in assay [1] worked out at 0.000946 µM; in assay [2], 5.42 µM.
For the compound `Cc1[nH]c2sc3cc(-c4ccc(CN(C)C5CCN(Cc6ccc(OC(F)(F)F)cc6)CC5)cc4)ccc3c2c(=O)c1Cl` [Example 7, 3-chloro-2-methyl-7-(4-((methyl(1-(4-(trifluoromethoxy)benzyl)piperidin-4-yl)amino)methyl)phenyl)benzo[4,5]thieno[2,3-b]pyridin-4(1H)-one 2,2,2-trifluoroacetate], the values for the half-inhibitory concentration (IC50) in assay [1] and in assay [2] were 0.121 µM and above 10 µM, respectively.
For `CCCCN(CCCC)CC(O)c1cc(Cl)cc2c1-c1ccc(Cl)cc1/C2=C/c1ccc(Cl)cc1` (centres unmarked) [Lumefantrine], in the assay with P. falciparum 3D7A, the IC50 was determined as 0.011 ± 0.004 µM. In addition, the “Pf IC50 Ratio vs Pf IC50 3D7, Dd2” value in the assay with P. falciparum Dd2 amounted to 1. The “Pf IC50 Ratio vs Pf IC50 3D7, Tm90C2A” value with P. falciparum Tm90C2A worked out at 0.1. Moreover, in the assay with P. falciparum Tm90C2B, the “Pf IC50 Ratio vs Pf IC50 3D7, Tm90C2B” value was 1.
Regarding `OC(c1cc(C(F)(F)F)nc2c(C(F)(F)F)cccc12)C1CCCCN1` (centres unmarked) [Mefloquine], the IC50 in the assay with P. falciparum 3D7A (strain 3D7A) was 0.037 ± 0.001 µM. Besides, in the assay on P. falciparum Dd2, the “Pf IC50 Ratio vs Pf IC50 3D7, Dd2” value is 1. In the assay with P. falciparum FCR3, the “Pf IC50 Ratio vs Pf IC50 3D7, FCR3” value was 1. The “Pf IC50 Ratio vs Pf IC50 3D7, Tm90C2A” value in the assay with P. falciparum Tm90C2A is recorded as 0.3. Further, in the assay with P. falciparum Tm90C2B, the “Pf IC50 Ratio vs Pf IC50 3D7, Tm90C2B” value is given as 1.
For the compound `CCc1nc(N)nc(N)c1-c1ccc(Cl)cc1` [Pyrimethamine], the half-maximal inhibitory concentration (IC50) in the assay on P. falciparum 3D7A (strain 3D7A) was found to be 0.032 ± 0.001 µM. In addition, in the assay on P. falciparum Dd2, the “Pf IC50 Ratio vs Pf IC50 3D7, Dd2” value is given as above 312. Further, the “Pf IC50 Ratio vs Pf IC50 3D7, FCR3” value in the assay with P. falciparum FCR3 is recorded as 3. Besides, in the assay with P. falciparum Tm90C2A, the “Pf IC50 Ratio vs Pf IC50 3D7, Tm90C2A” value was above 312. Moreover, the “Pf IC50 Ratio vs Pf IC50 3D7, Tm90C2B” value in the assay with P. falciparum Tm90C2B is reported as above 88.
